We go through 16 compounds from publication PMC9823811, “Anti-Microbial Activity of Aliphatic Alcohols from Chinese Black Cardamom (Amomum tsao-ko) against Mycobacterium tuberculosis H37Rv” (Plants, 2022).

As usually defined, the IC50 is the concentration at which inhibition is half-maximal. What is called MIC is the least concentration at which growth counts as inhibited.

The test system of data set [1] is Vero cells (ATCC CRL-1586). Particulars: African green monkey, 72 h.
Data set [2] in a line: Cytotoxicity against Vero cells (resazurin). Particulars: African green monkey. A general note: Alamar Blue is a resazurin reagent that responds to reducing activity.
Data set [3] relates to M. tuberculosis H37Rv (ATCC 27294). In words: Microplate Alamar Blue Assay (MABA), MIC against replicating M. tuberculosis. It is filed as cell-based, Mycobacterium tuberculosis. Particulars: 7 days at 37 °C; for MIC: Mycobacterium tuberculosis, 168 h.
The subject of data set [4] is non-replicating M. tuberculosis H37Rv_LuxABCDE. In words: Low oxygen recovery assay (LORA), MIC against non-replicating M. tuberculosis. The class given is cell-based, Mycobacterium tuberculosis. Particulars: for MIC: Mycobacterium tuberculosis; for MIC / MIC against M. tuberculosis H37Rv, LORA: non-replicating M. tuberculosis H37Rv, low oxygen.
Data set [5] relates to Vero cells (ATCC CRL-1586). In words: Cytotoxicity against Vero cells (resazurin). Particulars: Vero cells, 72 h.
[6] abbreviates: MIC = lowest concentration reducing fluorescence by 90%.

In brackets after ≈: the same amount, converted by molar mass. Some results are limits rather than exact numbers.

For `OC/C=C/CCCCCCCO` [Compound 2, (E)-2-decene-1,10-diol], the “Vero cytotoxicity, percentage in parentheses after the IC50 bound” value in data set [1] amounted to 25%. The compound further had an IC50 at 72 h in data set [2] (Vero cells (ATCC CRL-1586)) of over 200 µg/mL. The minimal inhibitory concentration (MIC) is 29.7 µg/mL (≈ 172 µM) in data set [3] (setting [6]), over 20 µg/mL in data set [3] ([…]) and 95.4 µg/mL (≈ 554 µM) in data set [4].

For the compound `OC/C=C/CCCC/C=C/CO` [Compound 5, (2E,8E)-2,8-decadiene-1,10-diol], it took 72.9 µg/mL (≈ 428 µM) to reach half-maximal inhibition in data set [2] (Vero cells (ATCC CRL-1586)) (IC50 at 72 h). Also, the MIC was 4.3 µg/mL (≈ 25.3 µM) in data set [3] (setting [6]), under 10 µg/mL in data set [3] ([…]) and 5.9 µg/mL (≈ 34.7 µM) in data set [4].

In the case of `CC(=O)OC/C=C/CC/C=C/COC(C)=O` [Compound 6, (2E,6E)-1,8-diacetoxy-2,6-octadiene], in data set [2] (Vero cells (ATCC CRL-1586)), the IC50 at 72 h stood at 76.8 µg/mL (≈ 339 µM). In addition, the MIC was 26.1 µg/mL (≈ 115 µM) in data set [3] (setting [6]), over 20 µg/mL in data set [3] ([…]) and over 100 µg/mL in data set [4].

For `CCCCCCC/C=C/C=O` [Compound 7, (E)-decenal], the MIC in data set [3] (setting [6]) and in data set [4] was over 100 µg/mL each time.

With `CCCCCCC/C=C/C(O)C(C)=O` (stereo not drawn) [Compound 8, (E)-1-acetyl-2-decene-1-ol], the MIC in data set [3] (setting [6]) and in data set [4] was over 100 µg/mL each time.

As to `CCCCCCCCC/C=C/C(O)C(C)=O` (stereo not drawn) [Compound 9, (E)-1-acetyl-2-dodecene-1-ol], the minimum inhibitory concentration (MIC) in data set [3] (setting [6]) and in data set [4] was over 100 µg/mL in each case.

`CC(C)=CCC/C(C)=C/CO` [Compound 10, geraniol]: the minimal inhibitory concentration (MIC) in data set [3] ([…]) and in data set [4] was over 100 µg/mL in each case.

With `CC(=O)OC/C=C(\C)CCC=C(C)C` [Compound 11, geranyl acetate], the IC50 at 72 h in data set [2] was over 200 µg/mL. Further, the results for the MIC in data set [3] (setting [6]), in data set [3] ([…]) and in data set [4] were 88.6 µg/mL, over 20 µg/mL and over 100 µg/mL, respectively.

For `C=C[C@](C)(O)CC/C=C(\C)CCC=C(C)C` [Compound 12, (3R)-(E)-nerolidol], the MIC in data set [3] (setting [6]) and in data set [4] was over 100 µg/mL throughout.

Take `NNC(=O)c1ccncc1` [Isoniazid, reference compound]: the values for the minimal inhibitory concentration (MIC) in data set [3] (setting [6]) and in data set [4] were 0.03 µg/mL (≈ 0.219 µM) and over 18 µg/mL, respectively.

In the case of `CC(=O)NC[C@H]1CN(c2ccc(N3CCOCC3)c(F)c2)C(=O)O1` [Linezolid, reference compound], the results for the minimum inhibitory concentration (MIC) in data set [3] (setting [6]) and in data set [4] were 0.16 µg/mL (≈ 0.474 µM) and 0.62 µg/mL (≈ 1.84 µM), respectively.

Consider `CO[C@H]1/C=C/O[C@@]2(C)Oc3c(C)c(O)c4c(O)c(c(/C=N/N5CCN(C)CC5)c(O)c4c3C2=O)NC(=O)/C(C)=C\C=C\[C@H](C)[C@H](O)[C@@H](C)[C@@H](O)[C@@H](C)[C@H](OC(C)=O)[C@@H]1C` [Rifampicin, reference compound], for which, in data set [2] (Vero cells (ATCC CRL-1586)), the IC50 at 72 h is over 100 µg/mL. Besides, the results for the MIC in data set [3] (setting [6]) and in data set [4] were 0.025 µg/mL (≈ 0.0304 µM) and 0.14 µg/mL (≈ 0.17 µM), respectively.

Consider `CC(=O)OC/C=C/CCCC/C=C/CO` [Synthetic tsaokol A, tsaokol A], for which the “Vero cytotoxicity, percentage in parentheses after the IC50 bound” value in data set [1] stood at 10%. Further, the half-inhibitory concentration (IC50) at 72 h in data set [2] (Vero cells (ATCC CRL-1586)) is over 200 µg/mL. In addition, the “Cytotoxicity against Vero Cells IC50” value in data set [5] was “identical to those of the isolated tsaokol A (3)”. The minimal inhibitory concentration (MIC) in data set [3] (setting [6]) turned out to be 1.4 µg/mL (≈ 6.59 µM).

“(2E,8E)-1,10-diacetyl-2,8-decadiene-1,10-diol [Compound 4]”: the “Cytotoxicity against Vero Cells IC50” value in data set [5] came to 143.6 µg/mL. Moreover, the entries for the “MIC against M. tuberculosis H37Rv, MABA” value in data set [3] (setting [6]) and in data set [3] ([…]) were 1.1 µg/mL and “lower than 10 µg/mL”, respectively. In addition, the “MIC against M. tuberculosis H37Rv, LORA” value in data set [4] amounted to 21.6 µg/mL.

As to “(2E,8E)-1-acetyl-2,8-decadiene-1,10-diol [Compound 3]”, in data set [5], the “Cytotoxicity against Vero Cells IC50” value is given as over 200 µg/mL. Also, the “MIC against M. tuberculosis H37Rv, MABA” value in data set [3] (setting [6]) is recorded as 0.6 µg/mL; in data set [3] ([…]), “lower than 10 µg/mL”. The “Ratio of non-replicating MIC (LORA) over replicating MIC (MABA)” value in data set [4] (LORA MIC relative to MABA MIC) is on record as “only two-fold higher”. Moreover, in data set [4], the “MIC against M. tuberculosis H37Rv, LORA” value is given as 1.4 µg/mL.

For the compound “(E)-1-acetyl-8-decene-1,10-diol [Compound 1]”, the “Cytotoxicity against Vero Cells IC50” value in data set [5] was over 200 µg/mL. The “MIC against M. tuberculosis H37Rv, MABA” value in data set [3] (setting [6]) was 10.2 µg/mL; in data set [3] ([…]) it was “lower than 10 µg/mL”. Moreover, the “MIC against M. tuberculosis H37Rv, LORA” value in data set [4] worked out at 61.5 µg/mL.
